PubChem BioAssay (NCI)
Several values for one entry are separate records, joined by “and”; a condition that tells them apart may be missing. Equal values may be shown once.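 Step 1: Grow cells in 96-well plates. Step 2: Expose to compound for 48 hours at 5 concentrations. Step 3: Interpolate endpoints linearly; if unreached, use highest concentration. GI50 = concentration required for 50% inhibition of growth. At the TGI there is no net growth.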

Legend:
Test in all cases: NCI tumour cell line growth inhibition, 48 h
[1] = tested on: DLD-1 colon
[2] = tested on: XF 498 CNS
[3] = tested on: DMS 114 small cell lung
[4] = tested on: RXF-631 renal
[5] = tested on: M19-MEL melanoma
[6] = tested on: KM20L2 colon
[7] = tested on: P388/ADR leukemia
[8] = tested on: P388 leukemia

## CCOC(=O)/C=C/c1ccccn1
[1]
  TGI: > 100 µM
[2]
  TGI: > 100 µM
[3]
  TGI: > 100 µM
[4]
  TGI: > 100 µM
[5]
  TGI: > 100 µM

## O=C(CSc1nnc(-c2ccc(N=Cc3ccc(Cl)cc3)cc2)o1)Nc1cccc(Cl)c1
[2]
  TGI: > 100 µM
[3]
  TGI: > 100 µM
[6]
  TGI: > 100 µM
[5]
  TGI: > 100 µM

## CC(=O)NC(CCCCNC(=O)N(C)N=O)C(=O)NCc1ccccc1 (stereo not given)
[1]
  TGI: > 100 µM
[2]
  TGI: > 100 µM
[3]
  TGI: > 100 µM
[4]
  TGI: > 100 µM
[6]
  TGI: > 100 µM
[5]
  TGI: > 100 µM

## CN(C)/C=N/c1nc2ncn(CCOC(=O)c3ccccc3)c2c(=O)[nH]1
[1]
  TGI: > 100 µM
[3]
  TGI: > 100 µM
[4]
  TGI: > 100 µM
[6]
  TGI: > 100 µM
[5]
  TGI: > 100 µM

## S=C(Nc1ccccc1)N1N=C2c3ccccc3CC[C@H]2[C@@H]1c1ccccc1
[1]
  TGI: > 100 µM
[2]
  TGI: > 100 µM
[3]
  TGI: > 100 µM
[6]
  TGI: > 100 µM
[5]
  TGI: > 100 µM

## COc1cc([C@@H]2c3cc4c(c(O)c3C[C@H]3COC(=O)[C@@H]32)OCO4)cc(OC)c1O
[1]
  GI50: 4.21 nM and 20 nM
  TGI: > 200 µM
[7]
  TGI: 992 nM
[2]
  TGI: 0.702 µM
[3]
  GI50: 2.31 nM
  TGI: 0.00546 µM
[8]
  TGI: 1900 nM
[6]
  GI50: 10.5 nM and 33.2 nM
  TGI: 0.0279 µM and 0.059 µM
[5]
  GI50: 4.61 nM
  TGI: > 200 µM

## CN1OC2OC(=O)OC2[C@H]1[C@H]1O[C@H](c2ccccc2)OC1(C)c1cc(OC(=O)c2ccccc2)ccc1OC(=O)c1ccccc1 (stereo not given in full)
[1]
  TGI: > 50 µM
[2]
  TGI: > 50 µM
[3]
  TGI: > 50 µM
[4]
  TGI: > 50 µM
[6]
  TGI: > 50 µM
[5]
  TGI: > 50 µM

## CSc1ccc2c(cc1=O)[C@@H](NC(=O)c1ccc(F)cc1)CCc1cc(O)c(O)c(O)c1-2
[1]
  TGI: > 100 µM
[3]
  TGI: > 100 µM
[4]
  TGI: > 100 µM
[6]
  TGI: > 100 µM
[5]
  TGI: > 100 µM

## COc1ccc(C#CCC(OC2OC(CO)C(O)C(O)C2O)C(O)c2ccc(OC)c(OC)c2)cc1OC (stereo not given)
[1]
  TGI: > 100 µM
[6]
  TGI: > 100 µM

## COc1ccc([C@@H]2CC(=O)NCCCCNCCCN2)cc1
[1]
  TGI: > 100 µM
[2]
  TGI: > 100 µM
[3]
  TGI: > 100 µM
[6]
  TGI: > 100 µM
[5]
  TGI: > 100 µM

## CC1=NN(C(=O)Cc2ccccc2)C(=O)/C1=C\c1ccco1
[1]
  TGI: > 100 µM
[2]
  TGI: > 100 µM
[3]
  TGI: > 100 µM
[5]
  TGI: > 100 µM

## N#Cc1c2nc3ccccc3nc2n2ccc3ccccc3c12
[1]
  TGI: > 100 µM
[3]
  TGI: > 100 µM
[5]
  TGI: > 100 µM

## CC[C@]12C=CCN3CCC4(c5cc([C@@]6(C(=O)OC)CC7CN(CCc8c6[nH]c6ccccc86)C[C@@H]6CCC[C@H]76)c(OC)cc5N(C)C4[C@](O)(C(=O)OC)C1OC(C)=O)C32 (stereo not given in full)
[1]
  TGI: > 10 µM
[3]
  TGI: 1.01 µM
[6]
  TGI: 0.209 µM
[5]
  TGI: > 10 µM

## O=C(c1ccccc1)c1c(CNCc2ccccc2)n(C(=O)c2ccccc2)c2ccccc12
[1]
  TGI: > 100 µM
[2]
  TGI: > 100 µM
[3]
  TGI: > 100 µM
[6]
  TGI: > 100 µM
[5]
  TGI: > 100 µM

## O=c1[nH]c(=O)n(C2CC(O)C(CO)O2)cc1C#Cc1cc(F)cc(F)c1 (stereo not given)
[1]
  TGI: > 100 µM
[2]
  TGI: > 100 µM
[3]
  TGI: > 100 µM
[4]
  TGI: > 100 µM
[5]
  TGI: > 100 µM

## CC1CCC23COC(=O)C2C(O)CCC3C1(C)CC(O)c1ccoc1 (stereo not given)
[1]
  TGI: > 100 µM
[2]
  TGI: > 100 µM
[3]
  TGI: > 100 µM
[6]
  TGI: > 100 µM
[5]
  TGI: > 100 µM

## O=C(Nc1c(Cl)cc([N+](=O)[O-])cc1Cl)/C(=N\Nc1cccc(Cl)c1)c1c(O)c2ccccc2oc1=O
[1]
  TGI: > 100 µM
[3]
  TGI: > 100 µM
[4]
  TGI: > 100 µM
[6]
  TGI: > 100 µM
[5]
  TGI: > 100 µM

## Nc1ccc(N)c2c1C(=O)c1c(N)ccc(N)c1C2=O
[1]
  TGI: > 100 µM
[2]
  TGI: > 89.2 µM
[3]
  TGI: > 100 µM
[6]
  TGI: > 100 µM
[5]
  TGI: > 100 µM

## COc1cc2c(cc1O)C(C)Cc1cc3c(cc1N(C)CC2)OCO3 (stereo not given)
[1]
  TGI: 42.7 µM
[2]
  TGI: 20.4 µM
[3]
  TGI: > 21.9 µM
[4]
  TGI: > 59 µM
[6]
  TGI: 26.9 µM
[5]
  TGI: > 40.8 µM

## Cc1cc(-c2ccccc2)cc2[n+]1CC=C2
[1]
  TGI: > 100 µM
[3]
  TGI: > 100 µM
[6]
  TGI: > 100 µM
[5]
  TGI: > 100 µM
